Source: ChEMBL document CHEMBL5120810, “Toporosides A and B, Cyclopentenyl-Containing ω-Glycosylated Fatty Acid Amides, and Toporosides C and D from the Northwestern Pacific Marine Sponge Stelodoryx toporoki” (2022)

system: H9c2; assay: Cardioprotective activity against TNF-alpha induced rat H9c2 cells assessed as increase in cell viability at 2.5 uM pretreated with TNF-alpha for 1 hr followed by compound addition measured after 48 hrs by MTT assay relative to control; assay type: functional

Compared with `CO[C@@H](CC/C=C\CCCCC(=O)CCCCC(=O)CCCCCCCCCCO[C@@H]1O[C@H](C(=O)O)[C@@H](O)[C@H](O)[C@H]1O)C(=O)NCCc1ccc(O)c(O)c1`, `CO[C@@H](CC/C=C\CCCCC(=O)CCCCC(=O)CC/C=C\CCCCCCCCO[C@@H]1O[C@H](C(=O)O)[C@@H](O)[C@H](O)[C@H]1O)C(=O)NCCc1ccc(O)c(O)c1` is higher in Activity: 18% for the first, 25% for the second.

In the case of `CO[C@@H](CC/C=C\CCCCC(=O)C1=C(CC/C=C\CCCCCCCCO[C@@H]2O[C@H](C(=O)O)[C@@H](O)[C@H](O)[C@H]2O)CCC1)C(=O)NCCc1ccc(O)c(O)c1`, the Activity is reported as 23%.
